# Results reported in PubChem BioAssay AID256 (DTP/NCI, 2004).
# Several values for one entry are separate records, joined by “and”; a condition that tells them apart may be missing. Equal entries are not always repeated. Inconclusive results and toxic doses are left out.
# System: CD2F1 mice, L1210 leukemia ip, survival T/C
# Assay: NCI In Vivo Anticancer Drug Screen. Data for tumor model L1210 Leukemia (intraperitoneal) in CD2F1 (CDF1) mice
# Settings: higher = longer survival
# Outline: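 Implant tumor; dose compound or vehicle; measure endpoint in both groups; report treated divided by control.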
# [1] = endpoint: mean survival time, dose: 100.0 mg/kg/injection, schedule: Q04DX003 (ip), vehicle: saline with Tween-80
# [2] = endpoint: mean survival time, dose: 200.0 mg/kg/injection, schedule: Q04DX003 (ip), vehicle: saline with Tween-80
# [3] = endpoint: mean survival time, dose: 12.5 mg/kg/injection, schedule: Q01DX009 (ip), vehicle: Klucel (hydroxypropylcellulose) (HPC)
# [4] = endpoint: mean survival time, dose: 25.0 mg/kg/injection, schedule: Q01DX009 (ip), vehicle: Klucel (hydroxypropylcellulose) (HPC)
# [5] = endpoint: mean survival time, dose: 25.0 mg/kg/injection, schedule: Q01DX009 (ip), vehicle: saline with Tween-80
# [6] = endpoint: mean survival time, dose: 50.0 mg/kg/injection, schedule: Q01DX009 (ip), vehicle: saline with Tween-80
# [7] = endpoint: mean survival time, dose: 100.0 mg/kg/injection, schedule: Q01DX009 (ip), vehicle: saline with Tween-80
# [8] = endpoint: mean survival time, dose: 100.0 mg/kg/injection, schedule: Q04DX002 (ip), vehicle: saline with Tween-80
# [9] = endpoint: mean survival time, dose: 200.0 mg/kg/injection, schedule: Q01DX009 (ip), vehicle: saline with Tween-80
# [10] = endpoint: mean survival time, dose: 400.0 mg/kg/injection, schedule: Q04DX003 (ip), vehicle: saline with Tween-80
# [11] = endpoint: mean survival time, dose: 12.5 mg/kg/injection, schedule: Q01DX009 (ip), vehicle: saline with Tween-80
# [12] = endpoint: mean survival time, dose: 400.0 mg/kg/injection, schedule: Q01DX009 (ip), vehicle: saline with Tween-80
# [13] = endpoint: mean survival time, dose: 100.0 mg/kg/injection, schedule: Q01DX001 (ip), vehicle: saline with Tween-80
# [14] = endpoint: mean survival time, dose: 200.0 mg/kg/injection, schedule: Q01DX001 (ip), vehicle: saline with Tween-80
# [15] = endpoint: mean survival time, dose: 400.0 mg/kg/injection, schedule: Q01DX001 (ip), vehicle: saline with Tween-80
smiles,measurement,setting,value
CC(C)(C)[Si](OC(=O)N(CCCl)N=O)(c1ccccc1)c1ccccc1,T/C,"endpoint: mean survival time, dose: 6.25 mg/kg/injection, schedule: Q01DX001 (ip), vehicle: distilled water + Tween-80",98 % of control
same,T/C,"endpoint: mean survival time, dose: 12.5 mg/kg/injection, schedule: Q01DX001 (ip), vehicle: distilled water + Tween-80",88 % of control
same,T/C,"endpoint: mean survival time, dose: 25.0 mg/kg/injection, schedule: Q01DX001 (ip), vehicle: distilled water + Tween-80",93 % of control
same,T/C,"endpoint: mean survival time, dose: 50.0 mg/kg/injection, schedule: Q01DX001 (ip), vehicle: distilled water + Tween-80",88 % of control
same,T/C,"endpoint: mean survival time, dose: 100.0 mg/kg/injection, schedule: Q01DX001 (ip), vehicle: distilled water + Tween-80",90 % of control
COC12[C@@H]3N[C@@H]3CN1C1=C(C(=O)C(N(C)CCN(C)C)=C(C)C1=O)[C@@H]2COC(N)=O (stereo partly specified),T/C,"endpoint: median survival time, dose: 3.0 mg/kg/injection, schedule: Q01DX001 (ip), vehicle: saline",104 % of control
same,T/C,"endpoint: median survival time, dose: 6.0 mg/kg/injection, schedule: Q01DX001 (ip), vehicle: saline",105 % of control
same,T/C,"endpoint: median survival time, dose: 12.0 mg/kg/injection, schedule: Q01DX001 (ip), vehicle: saline",119 % of control and 105 % of control
same,T/C,"endpoint: median survival time, dose: 24.0 mg/kg/injection, schedule: Q01DX001 (ip), vehicle: saline",109 % of control
Nc1nc(=O)n(C2OC(CO)C(O)C2Cl)cc1I (stereo unspecified),T/C,"endpoint: median survival time, dose: 12.5 mg/kg/injection, schedule: Q01DX005 (ip), vehicle: saline with Tween-80",97 % of control
same,T/C,"endpoint: median survival time, dose: 25.0 mg/kg/injection, schedule: Q01DX005 (ip), vehicle: saline with Tween-80",112 % of control
same,T/C,"endpoint: median survival time, dose: 50.0 mg/kg/injection, schedule: Q01DX005 (ip), vehicle: saline with Tween-80",104 % of control
same,T/C,"endpoint: median survival time, dose: 100.0 mg/kg/injection, schedule: Q01DX005 (ip), vehicle: saline with Tween-80",107 % of control
same,T/C,"endpoint: median survival time, dose: 200.0 mg/kg/injection, schedule: Q01DX005 (ip), vehicle: saline with Tween-80",104 % of control
CNNCCCCC(=O)NC(C)C,T/C,"endpoint: mean survival time, dose: 25.0 mg/kg/injection, schedule: Q04DX003 (ip), vehicle: saline",105 % of control
same,T/C,"endpoint: mean survival time, dose: 50.0 mg/kg/injection, schedule: Q04DX003 (ip), vehicle: saline",101 % of control
same,T/C,"endpoint: mean survival time, dose: 100.0 mg/kg/injection, schedule: Q04DX003 (ip), vehicle: saline",101 % of control
O=C([O-])C1OC([n+]2ccccc2)C(O)C(O)C1O (stereo unspecified),T/C,"endpoint: median survival time, dose: 12.5 mg/kg/injection, schedule: Q01DX005 (ip), vehicle: saline",101 % of control
same,T/C,"endpoint: median survival time, dose: 25.0 mg/kg/injection, schedule: Q01DX005 (ip), vehicle: saline",100 % of control
same,T/C,"endpoint: median survival time, dose: 50.0 mg/kg/injection, schedule: Q01DX005 (ip), vehicle: saline",107 % of control
same,T/C,"endpoint: median survival time, dose: 100.0 mg/kg/injection, schedule: Q01DX005 (ip), vehicle: saline",112 % of control
same,T/C,"endpoint: median survival time, dose: 200.0 mg/kg/injection, schedule: Q01DX005 (ip), vehicle: saline",102 % of control
Nc1cc2[nH]cnc2c([Se])n1,T/C,[1],101 % of control
same,T/C,[2],107 % of control
Cc1sc2ccccc2[n+]1C,T/C,[3],93 % of control
same,T/C,[4],95 % of control
same,T/C,"endpoint: mean survival time, dose: 50.0 mg/kg/injection, schedule: Q01DX009 (ip), vehicle: Klucel (hydroxypropylcellulose) (HPC)",87 % of control
c1ccc2c(c1)OP(OP1Oc3ccccc3O1)O2,T/C,[5],98 % of control
same,T/C,[6],98 % of control
same,T/C,[7],107 % of control
same,T/C,"endpoint: mean survival time, dose: 100.0 mg/kg/injection, schedule: Q04DX003 (ip), vehicle: acetone",103 % of control
CCN(CC)CCN(C)C(=O)C(O)(c1ccccc1)c1ccccc1,T/C,"endpoint: mean survival time, dose: 75.0 mg/kg/injection, schedule: Q01DX001 (ip), vehicle: saline",100 % of control
same,T/C,"endpoint: mean survival time, dose: 150.0 mg/kg/injection, schedule: Q01DX001 (ip), vehicle: saline",103 % of control
same,T/C,"endpoint: mean survival time, dose: 300.0 mg/kg/injection, schedule: Q01DX001 (ip), vehicle: saline",102 % of control
C#CC(C)(C)OC(O)C(Cl)(Cl)Cl (stereo unspecified),T/C,[8],91 % of control
same,T/C,"endpoint: mean survival time, dose: 200.0 mg/kg/injection, schedule: Q04DX002 (ip), vehicle: saline with Tween-80",91 % of control
same,T/C,"endpoint: mean survival time, dose: 400.0 mg/kg/injection, schedule: Q04DX002 (ip), vehicle: saline with Tween-80",106 % of control
O=C(C[n+]1cc2ccccc2cc1/C=N/O)c1ccccc1,T/C,[6],98 % of control
same,T/C,[7],93 % of control
same,T/C,[1],95 % of control
same,T/C,[9],96 % of control
same,T/C,[2],95 % of control
N#CC[CH2][Sn]([c]1ccccc1)([c]1ccccc1)[c]1ccccc1,T/C,[1],94 % of control
same,T/C,[2],91 % of control
same,T/C,[10],89 % of control
COC(COS(=O)(=O)c1ccc(Br)cc1)(c1ccccc1)c1ccccc1,T/C,[11],95 % of control
same,T/C,[5],88 % of control
same,T/C,[6],88 % of control
COc1ccc(/C=N/NC(=O)CNC(=O)c2ccccc2)cc1,T/C,[7],92 % of control
same,T/C,[12],88 % of control
COC1/C=C/C=C(/C)Cc2cc(O)c(Cl)c(c2)N(C)C(=O)CC(OC(=O)C(C)C)C2(C)OC2C(C)C2CC1(O)NC(=O)O2 (stereo unspecified),T/C,"endpoint: mean survival time, dose: 0.12 mg/kg/injection, schedule: Q01DX009 (ip), vehicle: saline + alcohol",111 % of control
same,T/C,"endpoint: mean survival time, dose: 0.5 mg/kg/injection, schedule: Q01DX009 (ip), vehicle: saline + alcohol",111 % of control
same,T/C,"endpoint: mean survival time, dose: 1.0 mg/kg/injection, schedule: Q01DX009 (ip), vehicle: saline + alcohol",122 % of control
same,T/C,"endpoint: mean survival time, dose: 2.0 mg/kg/injection, schedule: Q01DX009 (ip), vehicle: saline + alcohol",90 % of control
same,T/C,"endpoint: median survival time, dose: 0.06 mg/kg/injection, schedule: Q01DX009 (ip), vehicle: saline + alcohol",117 % of control
same,T/C,"endpoint: median survival time, dose: 0.12 mg/kg/injection, schedule: Q01DX009 (ip), vehicle: saline + alcohol",117 % of control
same,T/C,"endpoint: median survival time, dose: 0.5 mg/kg/injection, schedule: Q01DX009 (ip), vehicle: saline + alcohol",122 % of control
same,T/C,"endpoint: median survival time, dose: 1.0 mg/kg/injection, schedule: Q01DX009 (ip), vehicle: saline + alcohol",120 % of control
same,T/C,"endpoint: median survival time, dose: 2.0 mg/kg/injection, schedule: Q01DX009 (ip), vehicle: saline + alcohol",123 % of control
C/C(=N\NC(=O)c1ccccc1)c1ccccc1,T/C,[7],98 % of control
same,T/C,[9],106 % of control
same,T/C,[12],102 % of control
CC1CCCC(C)N1CC(O)c1ccccc1 (stereo unspecified),T/C,"endpoint: mean survival time, dose: 6.25 mg/kg/injection, schedule: Q01DX009 (ip), vehicle: saline with Tween-80",98 % of control
same,T/C,[11],100 % of control
same,T/C,[5],102 % of control
O=c1scc(-c2ccc(Br)cc2)s1,T/C,[3],93 % of control
same,T/C,[4],100 % of control
Cc1ccc(C(=O)C(F)(F)F)cc1,T/C,[13],104 % of control
same,T/C,[14],101 % of control
same,T/C,[15],96 % of control
COc1ccc(/C=N/NC(=S)Nc2ccccn2)cc1OC,T/C,"endpoint: mean survival time, dose: 25.0 mg/kg/injection, schedule: Q04DX002 (ip), vehicle: saline with Tween-80",92 % of control
same,T/C,"endpoint: mean survival time, dose: 50.0 mg/kg/injection, schedule: Q04DX002 (ip), vehicle: saline with Tween-80",92 % of control
same,T/C,[8],88 % of control and 95 % of control
O=C(O)c1c(F)c(F)c2c(F)c(F)c(F)c(F)c2c1F,T/C,[1],93 % of control
same,T/C,[2],92 % of control
CC[C@@]1(O)C(=O)OCc2c1cc1n(c2=O)Cc2cc3ccccc3nc2-1,T/C,"endpoint: mean survival time, dose: 0.78 mg/kg/injection, schedule: Q04DX003 (ip), vehicle: water",120 % of control
same,T/C,"endpoint: mean survival time, dose: 1.56 mg/kg/injection, schedule: Q04DX003 (ip), vehicle: water",156 % of control
same,T/C,"endpoint: mean survival time, dose: 3.13 mg/kg/injection, schedule: Q04DX003 (ip), vehicle: other",159 % of control
same,T/C,"endpoint: mean survival time, dose: 3.13 mg/kg/injection, schedule: Q04DX003 (ip), vehicle: water",156 % of control
same,T/C,"endpoint: mean survival time, dose: 6.25 mg/kg/injection, schedule: Q04DX003 (ip), vehicle: other",124 % of control
same,T/C,"endpoint: mean survival time, dose: 12.5 mg/kg/injection, schedule: Q04DX003 (ip), vehicle: water",95 % of control
same,T/C,"endpoint: mean survival time, dose: 25.0 mg/kg/injection, schedule: Q04DX003 (ip), vehicle: other",119 % of control
O=c1[nH]c(-c2ccccc2)c(N=Nc2ccccc2)c(=O)[nH]1,T/C,[13],89 % of control
same,T/C,[14],96 % of control
same,T/C,[15],102 % of control
N#CCCN1C(=O)CCC1=O,T/C,[7],97 % of control
same,T/C,[1],95 % of control
same,T/C,[9],95 % of control
same,T/C,[2],97 % of control
same,T/C,[12],92 % of control
same,T/C,[10],95 % of control
